Reference: ChEMBL document CHEMBL3880431, “Heme oxygenase inhibitors, screening methods for heme oxygenase inhibitors and methods of use of heme oxygenase inhibitors for antimicrobial therapy” (2013)
Activity calls are given as the source filed them. No cut-off for these calls is given here.

Columns and labels:
[1] = Lipophilicity, log P of the compound; format: physicochemical; conditions: octanol/water; read-out: logP
[2] = Solubility of the compound in methanol; format: physicochemical
[3] = test system: Pseudomonas aeruginosa; experiment: Antimicrobial activity against Pseudomonas aeruginosa MPAO1 infected in Caenorhabditis elegans assessed as prolongation of survival of infected worms; format: functional
[4] = Solubility of the compound in methanol/ethanol; format: physicochemical
[5] = target: T1, Heme oxygenase (Pseudomonas aeruginosa, UniProt O69002); experiment: Binding affinity to Pseudomonas aeruginosa MPAO1 wild type apo heme oxygenase by spectrofluorimetric analysis; conditions: read-out: Kd
T1 sequence (O69002 whole entry): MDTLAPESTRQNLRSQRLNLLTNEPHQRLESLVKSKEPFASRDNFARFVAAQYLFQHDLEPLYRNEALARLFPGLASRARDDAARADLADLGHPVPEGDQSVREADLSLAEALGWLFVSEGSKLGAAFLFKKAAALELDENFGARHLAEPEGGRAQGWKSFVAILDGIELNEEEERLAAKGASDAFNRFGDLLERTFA

[6] = test system: Pseudomonas aeruginosa; experiment: Growth inhibition of Pseudomonas aeruginosa MPAO1 at >250 uM after 10 hrs; format: functional
[7] = target: T2, Biliverdin-producing heme oxygenase (Neisseria meningitidis, UniProt Q9AH50); experiment: Binding affinity to Neisseria meningitidis wild type apo heme oxygenase expressed in Escherichia coli BL21(DE3) pLysS by spectrofluorimetric analysis; conditions: read-out: Kd
T2 sequence (Q9AH50 whole entry): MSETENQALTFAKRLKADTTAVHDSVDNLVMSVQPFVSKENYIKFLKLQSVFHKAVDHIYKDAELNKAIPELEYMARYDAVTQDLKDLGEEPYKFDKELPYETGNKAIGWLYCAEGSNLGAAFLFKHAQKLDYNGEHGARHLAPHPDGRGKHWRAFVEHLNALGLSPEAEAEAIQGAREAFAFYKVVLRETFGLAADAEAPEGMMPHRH

[8] = Decrease in heme oxygenase protein expression level in Pseudomonas aeruginosa MPAO1 at 0.5 mM measured every hr for 12 hrs in presence of 25 uM of hemoglobin by Western blot analysis; format: functional
[9] = test system: Pseudomonas aeruginosa; experiment: Growth inhibition of Pseudomonas aeruginosa MPAO1 at >=500 uM after 10 hrs in presence of 40 uM of Fe(3)-pyoverdin; format: functional
[10] = test system: Pseudomonas aeruginosa; experiment: Growth inhibition of Pseudomonas aeruginosa MPAO1 assessed as induction of slower cell growth at 500 uM measured up to 6 hrs; format: functional
[11] = Decrease in heme oxygenase protein expression level in Pseudomonas aeruginosa MPAO1 at 0.5 mM measured every hr for 12 hrs in presence of 40 uM of Fe(3)-pyoverdin by Western blot analysis; format: functional
[12] = test system: Pseudomonas aeruginosa; experiment: Growth inhibition of Pseudomonas aeruginosa MPAO1 assessed as cell growth recovery up to 1500 uM after 10 hrs in presence of 40 uM of Fe(3)-pyoverdin relative to control; format: functional; set-up: scale not given: the % may be the effect or the level left
[13] = test system: Pseudomonas aeruginosa; experiment: Growth inhibition of Pseudomonas aeruginosa MPAO1 at 500 uM measured up to 6 hrs in presence of 25 uM of hemoglobin; format: functional
[14] = Decrease in heme oxygenase protein expression level in Pseudomonas aeruginosa MPAO1 at 0.5 mM measured after 6 hrs in presence of 40 uM of Fe(3)-pyoverdin by Western blot analysis; format: functional
[15] = test system: Pseudomonas aeruginosa; experiment: Antimicrobial activity against Pseudomonas aeruginosa MPAO1 after 10 hrs; format: functional; conditions: MPAO1, 10 h

For `CN(C)c1ccc(/C=N/NC(=N)N)cc1`, the logP [1] was 3.77, the solubility [2] was “Soluble” and the Activity [3] was “Active”.

For `O=[N+]([O-])c1ccc(O)c(/C=N/c2cccc(CO)c2)c1`, the logP [1] was 2.71 and the solubility [4] was “Insoluble”.

For `CN(C)c1ccc(/C=N/n2nnnc2N)cc1`, the logP [1] was 0.76, the Kd [5] was 15.8 µM and the “growth inhibition (GI)” value [6] was “Active”. For the same molecule, the Kd [7] was 14.1 µM.

In the case of `C(=N\Nc1nc(-c2cccnc2)cs1)/c1cccnc1`, the logP [1] is reported as 4.24, the Kd [5] is reported as 20.9 µM and the solubility [2] is reported as “Insoluble”. For the same molecule, the “growth inhibition (GI)” value [6] was “Active”, the Activity [8] was “Active” and the “growth inhibition (GI)” value [9] was “Active”. For the same molecule, the Activity [10] was “Active”, the Activity [11] was “Active” and the Activity [12] was 40%. For the same molecule, the Kd [7] was 15.6 µM, the “growth inhibition (GI)” value [13] was “Active” and the Activity [14] was “Active”.

In the case of `O=[N+]([O-])c1cccc(/C=N/Nc2ccc(S(=O)(=O)O)cc2)c1`, the MIC50 [15] is reported as over 1000 µg/mL, the logP [1] is reported as 4.62 and the solubility [2] is reported as “Insoluble”.
